According to patent US20130012497A1, “METHODS FOR DETECTING ADHD SUSCEPTIBILITY AND […] AND LONG TERM OUTCOME OF ADHD SYMPTOMS” (The United States of America, as represented by the …, priority 2011, published 2013):

Test system: ADHD symptoms
Experiment: Treatment response to stimulant medication on the SWAN scale, by LPHN3-11q genotype
Type: in vivo, human
Details: 82 individuals, US1 sample
Procedure: Eighty-two individuals with complete genotype and phenotype information were sampled from the original 240 trios in the US1 sample of Example 1. A comparative analyses regarding stimulant treatment was done as described in Arcos-Burgos et al., Mol. Psychiatry, 15(11): 1053-66 (2010). An analysis was performed to determine the relationship of SWAN scale (Strengths and Weaknesses of ADHD Symptoms and Normal Behavior scale) questions individually as well as inattentive and hyperactive combined dimensions (questions 1-9 indicate inattentive symptoms and questions 10-18 indicate hyperactive symptoms), prior to and after starting treatment with the stimulant methylphenidate.

For `COC(=O)C(c1ccccc1)C1CCCCN1` (centres unmarked) [methylphenidate], the “response to stimulant medication treatment (SWAN scale)” value (individuals having AA at rs6551665 and fewer than two copies of the susceptibility haplotype on 11q) was “poor response” and the “change of symptoms after treatment with stimulant medication (SWAN scale question 18, hyperactive-impulsive dimension)” value (individuals having GG at rs6551665 and two copies of the susceptibility haplotype on 11q) was “significant improvement of symptoms”.
